Test results reported in patent US9856290B2, “Glycopeptide compositions and uses thereof” (SUSSEX RESEARCH LABORATORIES INC., priority 2013, dated 2018).
Where a SMILES comes first, the peptide text is derived from it.

Key:
[1] = tested on: Human Dermal Fibroblasts (KMST-6); assay: Cell Viability MTT Assay; assay type: cell-based; conditions: 5 μM, KMST-6, 48 and 72 hours; toxicity defined as viability less than 50% of control
Description: KMST-6 cells (Japan Health Sciences Foundation, JCRB0433) were seeded at 7,000 cells/ml in complete media. The complete media consists of the following: MEM/EBSS (Hyclone, SH30024.01), 10% Heat-Inactivated FBS (Gibco, 10082-147), 1% L-Glutamine (Hyclone, SH30031.01), 1% Nucleosides (800 mg/L Adenosine, 850 mg/L Guanidine, 730 mg/L Cytidine, 730 mg/L Uridine and 240 mg/L Thymidine), 1% Penicillin/Streptomycin (HyClone, SV30010), 1% Sodium Pyruvate (HyClone, SH30239.01), 1% Non-Essential Amino Acids (Hyclone, SH30238.01) and 0.04% Gentamicin (Gibco, 15710-064). Cells were grown for 2 days prior to treatments. […] The absorbance was measured with a microplate reader (Molecular Devices, SpectraMax M2e) at 570 nm. […]
To determine effects on cell viability as a measure of toxicity, 5 μM of the 6 exemplary glycopeptides were applied to Human Dermal Fibroblasts (KMST-6) as previously described. […] The absorbance was measured with a microplate reader (Molecular Devices, SpectraMax M2e) at 570 nm. Three or more independent experiments were performed and statistical significance was determined using One-way ANOVA (p<0.05). […]

[2] = tested on: Human Dermal Fibroblasts (KMST-6); assay: Cell morphology (phase contrast images); assay type: cell-based; conditions: 5 μM
Description: KMST-6 cells (Japan Health Sciences Foundation, JCRB0433) were seeded at 7,000 cells/ml in 12-well tissue culture treated plates (Falcon, 353043) in complete media. The complete media consists of the following: MEM/EBSS (Hyclone, SH30024.01), 10% Heat-Inactivated FBS (Gibco, 10082-147), 1% L-Glutamine (Hyclone, SH30031.01), 1% Nucleosides (800 mg/L Adenosine, 850 mg/L Guanidine, 730 mg/L Cytidine, 730 mg/L Uridine and 240 mg/L Thymidine), 1% Penicillin/Streptomycin (HyClone, SV30010), 1% Sodium Pyruvate (HyClone, SH30239.01), 1% Non-Essential Amino Acids (Hyclone, SH30238.01) and 0.04% Gentamicin (Gibco, 15710-064). Cells were grown for 2 days prior to treatments. The media was aspirated and cells were washed with 1×PBS (Fisher, SH30256.01) and treated with 5 μM glycopeptides (GP001-1, GP002-3, GP002-7, GP003-9, GP004-3 and GP004-4), reference (Pal-KTTKS, CPC Scientific, 822197), and control (DMSO, Fisher, BP231-100) in serum-free media supplemented with 50 μg/mL Sodium Ascorbate (Sigma, A4034) and 80 μg/mL β-Aminopropionate Fumarate (Sigma, A3134). The treated cells were incubated at 37° C. and 5% CO2 for 48 and 72 hours. At each time point, images were taken with an Olympus Opti-Tech Scientific Microscope (Lumenera, Infinity 2 camera at 10× magnification) and changes in cell size and morphology were recorded. […]

[3] = tested on: fibroblast; conditions: under certain conditions; cited from earlier work
[4] = tested on: MatTek's EpiDermFT 3D human in vitro skin model; assay: Histology (hematoxylin & eosin) of 3D human in vitro skin model; assay type: cell-based; conditions: 5 μM, 72 hours post treatment
Description: MatTek's EpiDermFT™ 3D human in vitro skin model was produced by MatTek Corporation (Ashland, Mass., USA). The 3D skin model is comprised of normal human epidermal keratinocytes (NHEK) and normal human dermal fibroblasts (NHDF) derived from neonatal-foreskin tissue and adult skin, respectively. […] The tissues were grown at air-liquid interface in Costar Snapwell™ single well tissue culture plate inserts with 0.4 μm pore size, 1.2 cm in diameter and 1.0 cm^2 surface area. For tissue maintenance, serum-free EFT-400-ASY media was used containing Dulbecco's Modified Eagle's Medium (DMEM), epidermal growth factor, insulin, hydrocortisone, 5 μg/mL gentamicin, 0.2 μg/ml amphotericin B and phenol red.
Tissues were rinsed twice with 1% PBS and treated with 5 μM GP003-9, reference (Pal-KTTKS, CPC Scientific, 822197), and control (DMSO, Fisher, BP231-100). At 72 hours post treatment, the tissue was fixed in 10% neutral buffered formalin overnight and transferred to 1% PBS the next day. […]
MatTek's EpiDermFT™, which is a 3D human in vitro skin model (comprised of normal human epidermal ketatinocytes and normal human dermal fibroblasts), was used to further investigate the effects of an exemplary glycosylated peptide (GP003-9 (SEQ ID NO: 6)) on human skin. […] At 72 hours post treatment, supernatants were isolated and analysed for elastin secretion. […]

[5] = tested on: human lung fibroblasts; conditions: human lung fibroblasts in vitro; cited from earlier work

In the case of `CCCCCCCCCCCCCCCC(=O)N[C@@H](CCCCN)C(=O)N[C@H](C(=O)N[C@H](C(=O)N[C@@H](CCCCN)C(=O)N[C@@H](CO)C(=O)O)[C@@H](C)O)[C@@H](C)O` [Reference, Pal-KTTKS] (HELM PEPTIDE1{[CCCCCCCCCCCCCCCC(=O)[*:2]].K.T.T.K.S}$$$$V2.0), the “cell viability as a measure of toxicity (MTT assay)” value [1] is reported as “significant decrease in cell viability”, the “cell confluence compared to control and glycopeptide treated cells” value ([2]; KMST-6) is reported as “demonstrated decrease in cell confluence” and the “toxicity as observed through phase-contrast morphology” value ([2]; KMST-6, 48 and 72 hours) is reported as “visibly interfered with cell viability”. For the same compound, the fibroblast cell viability [3] was “decrease fibroblast cell viability”.

With `CCCCCCCCCCCCCCCC(=O)N[C@@H](CCCCN)C(=O)N[C@H](C(=O)N[C@H](C(=O)N[C@@H](CCCCN)C(=O)N[C@@H](CO)C(=O)O)[C@@H](C)O)[C@@H](C)O[C@@H]1O[C@H](COC(C)=O)[C@@H](O[C@H]2O[C@H](COC(C)=O)[C@@H](OC(C)=O)[C@H](OC(C)=O)[C@H]2OC(C)=O)[C@H](OC(C)=O)[C@H]1OC(C)=O` [GP003-9, Pal-KT(Ac7-β-Mal)TKS-OH] the “effect on the histology of the 3D human skin model” value [4] was “no detrimental effect”.

In the case of “Lys-Thr-Thr-Lys-Ser (KTTKS; listed as Homo sapiens) [pentapeptide derived from the carboxyl-terminus of type I procollagen]”, the “ECM proteins (synthesis of collagen types I and III and fibronectin)” value [5] is given as “significantly augment the ECM proteins”.
